In US11584709B2, “Multitarget drug for treating diseases in mammals” (“PHARMENTERPRISES EURASIA” LIMITED LIABILITY COMPANY, priority 2017, dated 2023):

Legend:
[1] = molecular target: T1, tachykinin receptor type 2 (NK2R) (Homo sapiens, UniProt P21452); test: Activity of tachykinin receptor type 2 (NK2R), intracellular calcium, CHO cells; format: cell-based; conditions: antagonist, [Nleu10]-NKA-(4-10) (10 nM) agonist
T1 construct: expressed in transfected cells; host or cells: CHO cells
T1 sequence (P21452 1-398): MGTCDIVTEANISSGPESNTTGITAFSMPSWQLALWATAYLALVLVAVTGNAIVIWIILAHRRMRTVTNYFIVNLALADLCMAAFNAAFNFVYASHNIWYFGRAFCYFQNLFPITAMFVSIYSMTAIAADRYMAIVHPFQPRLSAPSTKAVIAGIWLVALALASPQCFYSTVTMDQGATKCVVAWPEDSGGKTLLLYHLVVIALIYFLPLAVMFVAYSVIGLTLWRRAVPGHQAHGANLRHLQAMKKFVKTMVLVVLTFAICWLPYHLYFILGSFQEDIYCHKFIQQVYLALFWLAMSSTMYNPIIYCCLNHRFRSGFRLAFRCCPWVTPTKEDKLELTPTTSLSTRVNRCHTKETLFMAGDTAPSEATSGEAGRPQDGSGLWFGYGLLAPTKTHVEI
Experimental: Compound 1 was dissolved in DMSO to a concentration of 100 mM; then a stock solution was serially diluted with DMSO. The maximum starting concentration of the substance is 100 μM. The effect was determined at 5 concentrations of the tested compounds, each concentration was studied twice. CHO cells expressing NK2R were used in the experiment, said sells, after the preincubation with an [Nleu10]-NKA-(4-10) (10 nM) agonist, were incubated with the test compound. The activity of receptors was determined according to the intracellular calcium concentration by fluorescence spectroscopy (Biochem Biophys Res Commun. 1994 May 16; 200(3):1512-20).

[2] = molecular target: T2, prokineticin receptor type 2 (PK2) (Homo sapiens, UniProt Q8NFJ6); test: Activity of prokineticin receptors type 2 (PK2), intracellular calcium, HEK-293 cells; format: cell-based; conditions: antagonist, PK2 agonist (2 nM)
T2 construct: expressed in transfected cells; host or cells: HEK-293 cells
Experimental: Compound 1 was dissolved in DMSO to a concentration of 100 mM; then a stock solution was serially diluted with DMSO. The maximum starting concentration of the substance is 100 μM. The effect was determined at 5 concentrations of the tested compounds, each concentration was studied twice. HEK-293 cells expressing prokinetycin receptors PK2 were used in the experiment, these cells, after preincubation with a PK2 agonist (2 nM), were incubated with the test compound. The activity of receptors was determined according to the intracellular calcium concentration by the fluorescence spectroscopy (Mol Pharmacol. 2005 June; 67(6):2070-6).

[3] = molecular target: T3, melanocortin receptor MC4R (Homo sapiens, UniProt P32245); test: Activity of melanocortin receptors MC4R, CHO cells; format: cell-based; conditions: antagonist, NDP-alpha-MSH agonist (30 nM)
T3 construct: expressed in transfected cells; host or cells: CHO cells
Experimental: Compound 1 was dissolved in DMSO to a concentration of 100 mM; then a stock solution was serially diluted with DMSO. The maximum starting concentration of the substance is 100 μM. The effect was determined at 5 concentrations of the tested compounds, each concentration was studied twice. CHO cells expressing a melanocortin receptor MC4R were used in the experiment, these cells, after preincubation with a NDP-alpha-MSH agonist (30 nM), were incubated with the test compound. The activity of receptors was determined according to the intracellular calcium concentration by the homogeneous time resolved fluorescence spectroscopy.

indomethacin colitis = test: Model of colitis induced by indomethacin; format: in vivo, male Wistar rats; conditions: 100 mg/kg; day 4; M ± m, n = 10
Experimental: The study was performed on male Wistar rats, which were subcutaneously injected with an indomethacin solution in a dose of 9 mg/kg for two days running to induce colitis. The injection solution was prepared as follows: first, indomethacin was dissolved in 100% ethanol, then it was diluted in 5% NaHCO3 solution. On the 4th day after euthanasia, the stomach and intestine were removed from the animals in the CO2 chamber, then the caecum was excised, 10 cm from the ileum and large intestine was cut off, and 5 cm—from the caecum, to assess gross lesions (J Ethnopharmacol. 2004 February; 90(2-3): 195-204).

[4] = test system: diarrhea induced by castor oil; test: Mouse model of diarrhea induced by castor oil; format: in vivo, Balb/c mice
Experimental: Balb/c mice, which starved for 24 hours, were given castor oil intragastrically. Then the animals were encaged into individual cages with a bottom covered with white paper, and time before the onset of diarrhea was noted. The observation time is 4 hours (J Pharm Pharmacol. 2015 February; 67(2):244-54).

[5] = Stability in blood plasma, dog; format: in vitro ADME; conditions: 1 μM, 37° C.
Experimental: (§1) Compound 1 at a concentration of 1 μM was incubated for 24 hours in the blood plasma of human and various animal species (rats, mice, guinea pigs, rabbits, horses, dogs, bull, pygmy hogs) at 37° C. Aliquots were taken at time points of 0, 0.25, 1, 2, 4, 8 and 24 hours. In the case of blood plasma of rabbits and monkeys, Compound 1 was incubated for 4 hours, and aliquots were taken at time points 0, 0.25, 1, 4. After the protein precipitation with acetonitrile, samples were analyzed by HPLC-MS/MS to determine the concentration of Compound 1. Verapamil was used as a stable control.

[6] = Stability in blood plasma, guinea pig; format: in vitro ADME; conditions: for Content, % from the initial, Mean (n = 2): guinea pig blood plasma, 1 μM, 37° C.
Experimental: as §1

[7] = Stability in blood plasma, monkey; format: in vitro ADME; conditions: 1 μM, 37° C.
Experimental: as §1

[8] = Stability in blood plasma, rabbit; format: in vitro ADME; conditions: for Content, % from the initial, Mean (n = 2): rabbit blood plasma, 1 μM, 37° C.
Experimental: as §1

[9] = Chronic (90-day) oral administration, body weight of rabbits; format: in vivo, Chinchilla rabbits; conditions: for period in which the lag in body weight gain was observed: female rabbits, daily intragastric
Experimental: The effect of 90-day, oral administration of Compound 1 in doses of 1.5 mg/kg, 7.5 mg/kg and 15 mg/kg on the body weight of male and female Chinchilla rabbits was studied.

[10] = 90-day oral, 1.5, 7.5 and 15 mg/kg, male and female rabbits

T3 sequence (P32245 whole entry): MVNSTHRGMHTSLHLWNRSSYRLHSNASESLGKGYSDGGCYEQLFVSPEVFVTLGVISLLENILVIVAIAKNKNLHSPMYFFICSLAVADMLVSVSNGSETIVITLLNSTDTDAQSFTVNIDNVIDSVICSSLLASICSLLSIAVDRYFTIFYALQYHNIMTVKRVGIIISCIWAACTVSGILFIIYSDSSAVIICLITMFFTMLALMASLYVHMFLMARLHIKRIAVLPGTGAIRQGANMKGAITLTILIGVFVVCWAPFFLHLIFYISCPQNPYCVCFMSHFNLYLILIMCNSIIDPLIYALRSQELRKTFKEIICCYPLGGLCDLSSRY
T2 sequence (Q8NFJ6 whole entry): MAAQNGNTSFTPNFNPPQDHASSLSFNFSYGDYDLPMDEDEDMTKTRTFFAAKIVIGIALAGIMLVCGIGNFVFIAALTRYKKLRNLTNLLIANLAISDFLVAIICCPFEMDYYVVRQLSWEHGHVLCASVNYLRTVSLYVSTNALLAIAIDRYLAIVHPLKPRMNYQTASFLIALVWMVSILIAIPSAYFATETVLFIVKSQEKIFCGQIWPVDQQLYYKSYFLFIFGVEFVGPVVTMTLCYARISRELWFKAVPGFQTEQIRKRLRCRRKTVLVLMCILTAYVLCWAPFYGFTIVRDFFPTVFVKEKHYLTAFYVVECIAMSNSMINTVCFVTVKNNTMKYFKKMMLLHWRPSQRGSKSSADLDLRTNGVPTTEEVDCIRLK

## O=C(Cc1ccc(O)cc1)N[C@@H](Cc1ccccc1)C(=O)OCc1ccccc1 [Compound 1, benzyl (2S)-2-[2-(4-hydroxyphenyl)acetamido]-3-phenylpropanoate]
[1]
  IC50: 8.4 µM
[2]
  IC50: 5.4 µM
[3]
  IC50: 7.6 µM
Indomethacin colitis
  Macroscopic assessment of the lesion, Caecum: 0.4 ± 0.2 points
  Macroscopic assessment of the lesion, Ileum: 0.6 ± 0.3& points
  Macroscopic assessment of the lesion, Large intestine: 0.2 ± 0.1& points
  Macroscopic assessment of the lesion, Overall assessment: 1.2 ± 0.4*& points
[4]; 50 mg/kg, M ± m, n = 10, observation 4 hours
  The time of onset of diarrhea: 42.00 ± 3.43& min
[4]; summary of Table 6
  increase of the time to the onset of diarrhea: 2 times
[5]; 0 hour
  Content, % from the initial, Mean (n = 2): 100%
[5]; 0.25 hour
  Content, % from the initial, Mean (n = 2): 110%
[5]; 1 hour
  Content, % from the initial, Mean (n = 2): 79.1%
[5]; 2 hour
  Content, % from the initial, Mean (n = 2): 80.6%
[5]; 4 hour
  Content, % from the initial, Mean (n = 2): 67.2%
[5]; 8 hour
  Content, % from the initial, Mean (n = 2): 54.1%
[5]; 24 hour
  Content, % from the initial, Mean (n = 2): 33.8%
[6]; blood plasma of guinea pigs, after 15 minutes
  hydrolysis in the blood plasma (in words): almost completely hydrolyzed
[6]; 0 hour
  Content, % from the initial, Mean (n = 2): 100%
[6]; 0.25 hour
  Content, % from the initial, Mean (n = 2): 0.00%
[6]; 1 hour
  Content, % from the initial, Mean (n = 2): 0.00%
[6]; 2 hour
  Content, % from the initial, Mean (n = 2): 0.00%
[6]; 4 hour
  Content, % from the initial, Mean (n = 2): 0.00%
[6]; 8 hour
  Content, % from the initial, Mean (n = 2): 0.00%
[6]; 24 hour
  Content, % from the initial, Mean (n = 2): 0.00%
[7]; 0 hour
  Content, % from the initial, Mean (n = 2): 100%
[7]; 0.25 hour
  Content, % from the initial, Mean (n = 2): 38.3%
[7]; 1 hour
  Content, % from the initial, Mean (n = 2): 1.69%
[7]; 4 hour
  Content, % from the initial, Mean (n = 2): 0.00%
[8]; blood plasma of rabbits, after 15 minutes
  hydrolysis in the blood plasma (in words): almost completely hydrolyzed
[8]; 0 hour
  Content, % from the initial, Mean (n = 2): 100%
[8]; 0.25 hour
  Content, % from the initial, Mean (n = 2): 0.00%
[8]; 1 hour
  Content, % from the initial, Mean (n = 2): 0.00%
[8]; 4 hour
  Content, % from the initial, Mean (n = 2): 0.00%
[9]; [10]
  general condition, appearance, and mobility: satisfactory and did not differ in the experimental and control groups
  weight gain compared with parallel controls: somewhat lagging behind in weight gain
[9]; accompanying the decrease in body weight gain
  feed and water intake: decrease in feed and water intake
[9]; 7.5 mg/kg
  period in which the lag in body weight gain was observed: practically, during the entire period of the drug administration
[9]; 15 mg/kg
  period in which the lag in body weight gain was observed: practically, during the entire period of the drug administration
[9]; recovery period, control versus experimental animals
  dynamics of the body weight in the recovery period: no differences in the dynamics of the body weight
